Activity calls are given as the source filed them. The rule behind the calls is not given here.
Legend:
SK-BR-3 [1] = assay: Cytotoxicity against human estrogen receptor negative SKBR3 cells at 0.1 to 50 uM after 72 hrs by MTT assay; assay type: functional, cell-based
NIH3T3 = assay: Cytotoxicity against mouse 3T3 cells assessed as cell viability at 0.1 to 10 uM after 72 hrs by MTT assay; assay type: cell-based; details: nih3t3, 72 h
SK-BR-3 [2] = assay: Cytotoxicity against human estrogen receptor negative SKBR3 cells at 10 uM after 72 hrs by MTT assay; assay type: functional, cell-based
MCF7 [3] = assay: Cytotoxicity against human estrogen receptor positive MCF7 cells after 72 hrs by MTT assay; assay type: functional, cell-based; details: for IC50: MCF7, 72 h
SK-BR-3 [4] = assay: Cytotoxicity against human estrogen receptor negative SKBR3 cells after 72 hrs by MTT assay; assay type: functional, cell-based; details: SK-BR-3, 72 h
MCF7 [5] = assay: Cytotoxicity against human estrogen receptor positive MCF7 cells at 50 uM after 72 hrs by MTT assay; assay type: functional, cell-based
MCF7 [6] = assay: Cytotoxicity against human estrogen receptor positive MCF7 cells at 0.1 uM after 72 hrs by MTT assay; assay type: functional, cell-based
MCF7 [7] = assay: Cytotoxicity against human estrogen receptor positive MCF7 cells at 1 to 10 uM after 72 hrs by MTT assay; assay type: functional, cell-based
MCF7 [8] = assay: Cytotoxicity against human estrogen receptor positive MCF7 cells at 1 uM after 72 hrs by MTT assay; assay type: functional, cell-based

SMILES: O=C1CSC(c2ccc(O)cc2O)N1c1ccc(O)cc1 (stereo unspecified)
- inhibition (SK-BR-3 [1]): inactive
- Activity (NIH3T3): Non-toxic

SMILES: Cc1ccc(N2C(=O)CSC2c2ccc(Cl)cc2)cc1 (stereo unspecified)
- inhibition (SK-BR-3 [2]): Active
- inhibition (SK-BR-3 [1]): inactive
- Activity (MCF7 [3]): Dose-dependent effect
- Activity (NIH3T3): Non-toxic

SMILES: O=C1CSC(c2ccc(O)cc2)N1c1ccc(O)cc1 (stereo unspecified)
- inhibition (SK-BR-3 [1]): inactive
- Activity (NIH3T3): Non-toxic

SMILES: O=C1CSC(c2ccccc2)N1c1ccccc1 (stereo unspecified)
- IC50 (SK-BR-3 [4]): 810 nM
- Activity (MCF7 [3]): Dose-dependent effect
- Activity (NIH3T3): Non-toxic

SMILES: O=C1CSC(c2cc(O)cc(O)c2)N1c1ccc(O)cc1 (stereo unspecified)
- inhibition (SK-BR-3 [2]): Active
- inhibition (SK-BR-3 [1]): inactive
- Activity (MCF7 [3]): Dose-dependent effect
- Activity (NIH3T3): Non-toxic

SMILES: Cc1ccc(N2C(=O)CSC2c2cccc3ccccc23)cc1 (stereo unspecified)
- IC50 (SK-BR-3 [4]): 250 nM
- inhibition (MCF7 [5]): inactive
- Activity (NIH3T3): Non-toxic
- inhibition (MCF7 [6]): Active

SMILES: COc1cc(C2SCC(=O)N2c2ccc(O)cc2)cc(OC)c1OC (stereo unspecified)
- inhibition (SK-BR-3 [2]): Active
- inhibition (SK-BR-3 [1]): inactive
- Activity (MCF7 [3]): Dose-dependent effect
- Activity (NIH3T3): Non-toxic

SMILES: COc1ccc(C2SCC(=O)N2c2ccc(O)cc2)cc1OC (stereo unspecified)
- Activity (MCF7 [7]): Active
- inhibition (SK-BR-3 [2]): Active
- inhibition (SK-BR-3 [1]): inactive
- Activity (MCF7 [3]): Dose-dependent effect
- IC50 (MCF7 [3]): 2580 nM
- Activity (NIH3T3): Non-toxic

SMILES: O=C1CSC(c2ccc(O)c(O)c2)N1c1ccc(O)cc1 (stereo unspecified)
- inhibition (SK-BR-3 [1]): inactive
- inhibition (MCF7 [8]): Active
- inhibition (MCF7 [5]): inactive
- Activity (NIH3T3): Non-toxic

SMILES: COc1ccc(C2SCC(=O)N2c2ccc(O)cc2)c(OC)c1 (stereo unspecified)
- inhibition (SK-BR-3 [1]): inactive
- Activity (MCF7 [3]): Dose-dependent effect
- Activity (NIH3T3): Non-toxic

SMILES: O=C1CSC(c2ccc(Cl)cc2)N1c1ccc(O)cc1 (stereo unspecified)
- Activity (MCF7 [7]): Active
- inhibition (SK-BR-3 [2]): Active
- inhibition (SK-BR-3 [1]): inactive
- Activity (MCF7 [3]): Dose-dependent effect
- IC50 (MCF7 [3]): 5000 nM
- Activity (NIH3T3): Non-toxic

SMILES: COc1cc(C2SCC(=O)N2c2ccc(C)cc2)cc(OC)c1OC (stereo unspecified)
- IC50 (SK-BR-3 [4]): 230 nM
- Activity (NIH3T3): Non-toxic

SMILES: Oc1ccc(/C=C/c2cc(O)cc(O)c2)cc1 [RESVERATROL]
- IC50 (SK-BR-3 [4]): 41400 nM
- IC50 (MCF7 [3]): 28100 nM
